# Test: Inhibition of HCV NS3 protease by fluorescence plate reader
# Design: species or system Hepacivirus hominis
row,Structure (SMILES),Ki [µM]
1,COc1ccc2c(O[C@@H]3C[C@@H](C(=O)NC4(C(=O)NS(=O)(=O)c5ccccc5)CC4)N(C(=O)C[C@@H](NC(=O)OC(C)(C)C)C(C)C)C3)cc(-c3ccccc3)nc2c1,1.2
2,COc1ccc2c(O[C@@H]3C[C@@H](C(=O)NC4(C(=O)O)CC4)N(C(=O)C[C@@H](NC(=O)OC(C)(C)C)C(C)C)C3)cc(-c3ccccc3)nc2c1,17
3,COc1ccc2c(O[C@@H]3C[C@@H](C(=O)NC4(C(=O)C(=O)O)CC4)N(C(=O)[C@@H](NC(=O)OC(C)(C)C)C(C)C)C3)cc(-c3ccccc3)nc2c1,1
4,COc1ccc2c(O[C@@H]3C[C@@H](CC(=O)NC4(C(=O)O)CC4)N(C(=O)[C@@H](NC(=O)OC(C)(C)C)C(C)C)C3)cc(-c3ccccc3)nc2c1,61
5,COc1ccc2c(O[C@@H]3C[C@@H](C(=O)NC4(CC(=O)NS(=O)(=O)c5ccccc5)CC4)N(C(=O)[C@@H](NC(=O)OC(C)(C)C)C(C)C)C3)cc(-c3ccccc3)nc2c1,14
6,COc1ccc2c(O[C@@H]3C[C@@H](C(=O)NC4(C(=O)NS(=O)(=O)c5ccccc5)CC4)N(C(=O)[C@@H](NC(=O)OC(C)(C)C)C(C)C)C3)cc(-c3ccccc3)nc2c1,0.055
7,COc1ccc2c(O[C@@H]3C[C@@H](C(=O)NC4(CC(=O)O)CC4)N(C(=O)[C@@H](NC(=O)OC(C)(C)C)C(C)C)C3)cc(-c3ccccc3)nc2c1,18
8,COc1ccc2c(O[C@@H]3C[C@@H](C(=O)NC4(C(=O)O)CC4)N(C(=O)[C@@H](NC(=O)OC(C)(C)C)C(C)C)C3)cc(-c3ccccc3)nc2c1,0.32
9,COc1ccc2c(O[C@@H]3C[C@@H](CC(=O)NC4(C(=O)NS(=O)(=O)c5ccccc5)CC4)N(C(=O)[C@@H](NC(=O)OC(C)(C)C)C(C)C)C3)cc(-c3ccccc3)nc2c1,1.8

# From ChEMBL document CHEMBL1150297, “Beta-amino acid substitutions and structure-based CoMFA modeling of hepatitis C virus NS3 protease inhibitors” (Bioorg Med Chem, 2008)
